# Where two headings read alike, the source gives them in different places.
# Experiments:
# [1] = test system: blood clot (red blood cells adjacent to the sensor); experiment: Glucose depletion at sensors inserted into blood clots, current response followed over time; type: cell-based; details: sensor with approximately 138 micrograms racemic D-/L-glyceraldehyde as thin outer coating, control sensors about 2 hour
# Protocol: Glucose sensors are inserted into small silicon tubes containing the appropriate biological fluid. The tubes are maintained at about 37 degrees Celsius, and the glucose sensor is monitored.
# Antiglycolytic sensors were prepared by modification of control sensors (FREESTYLE NAVIGATOR®) as follows. A coating solution was prepared from 250 mg/mL of a racemic mixture of L-glyceraldehyde and D-glyceraldehyde, and 150 mg/mL in polymer PC-1306 (Biocompatibles, PLC), the former suspended and the latter dissolved in ethanol. The resulting antiglycolytic sensors had approximately 138 micrograms of the racemic mixture of D- and L-glyceraldehydes incorporated as a thin, outer coating. Both these sensors and control sensors (no antiglycolytic agents added) were then inserted into blood clots, and the current response was followed over time.
# The depletion is much delayed (up to about 12 hours) in the glyceraldehydes-containing sensors.
# [2] = Antiglycolytic-modified sensor and control sensor implanted side by side in the arm of a non-diabetic subject; type: in vivo; details: FREESTYLE NAVIGATOR sensor with overcoat of about 55 micrograms L-glyceraldehyde, versus control sensor
# Protocol: A further example of the use of an antiglycolytic sensor is provided by its use in an in vivo environment. In this example, a control sensor (FREESTYLE NAVIGATOR®) is inserted in the arm of a non-diabetic subject, adjacent to a similar sensor, which has been modified by the addition of an antiglycolytic agent, L-glyceraldehyde. A coating solution was made 200 mg/mL in L-glyceraldehyde, and 150 mg/mL in polymer PC-1306 (Biocompatibles, PLC), both dissolved in ethanol. The FREESTYLE NAVIGATOR® sensor was then modified by dipping twice into this coating solution, yielding an overcoat containing about 55 micrograms of L-glyceraldehyde. […] Glucose readings below 60 mg/dL are not anticipated in non-diabetic subjects, and are therefore considered to be anomalous, reflecting either (a) sensor malfunctions, or more likely (b) local inhomogeneities of glucose concentration (in the vicinity of a wound, for example) wherein the glucose concentration deviates substantially from the systemic value. Such deviations are observed with some regularity in control sensors, but are not observed in sensors modified with L-glyceraldehyde.
# [3] = 50 mg/ml boric acid with 150 mg/ml L-glyceraldehyde and 150 mg/mL PC in outer membrane, stress at 56° C. for nine days, nonheparin blood
# Protocol: An example of the use of an antiglycolytic sensor containing borate minerals, boric acid or any precursor thereof, is provided by its testing in an in vitro environment. 50 mg/ml boric acid was mixed with 150 mg/ml L-glyceraldehyde and 150 mg/mL PC in 100% ethanol. The sensor was dipped three times with a 10 minute interval. The sensor was then cured overnight, and subjected to stress at 56° C. for nine days and subsequently tested in nonheparin blood.
smiles,measurement,setting,value
"O=CC(O)CO (racemic) [glyceraldehydes, racemic mixture of L-glyceraldehyde and D-glyceraldehyde]",glucose depletion period,[1],up to 12 hours
O=C[C@@H](O)CO [L-glyceraldehyde],large negative deviation in signal (values well below 60 mg/dL) during the night,[2],not observed
OB(O)O [boric acid],high background current after stress,[3],significantly reduced
same,high background current after stress,[3]; listed as borate,reduced significantly
